Data set [1] is described as follows: pharmacokinetics of oral tolterodine (background data). As to conditions: extensive metabolisers, EMs.
Data set [2] is described as follows: partition coefficient between n-octanol and phosphate buffer. As to conditions: n-octanol / phosphate buffer at pH 7.32.
A further data set in a line: solubility in water. The conditions noted are these: room temperature.
For data set [3] the following is noted: poor metabolizer; cited from earlier work.
The nature of data set [4]: In vitro permeation across synthetic membranes and dermatomed pig skin from solutions of tolterodine base (Franz diffusion cells, Example 2). It is filed as in vitro ADME. On the procedure: In vitro skin permeation results were obtained from studies on pig or human skin using Franz diffusion cells.
Full thickness pig and human skin (used in Example 1) or 765 μm skin (used in all other Examples) was used. The 765 μm skin was isolated by using a dermatome (Zimmer Electric Dermatome 8821, Zimmer Chirurgie).
The skin was mounted in the diffusion cells with an available diffusion area of 1.8 cm^2. The inner side of the skin was exposed to 12.1 ml receptor phase (0.05M phosphate buffer, pH 7.4) at 37±1° C. Samples were withdrawn periodically and measured by HPLC. Fluxes (>g/cm^2/h) were obtained by linear regression of data at steady state.
In vitro permeation studies across synthetic membranes and dermatomed pig skin from solutions of tolterodine base, imitating the reservoir type transdermal device. Enhancer was added to one of the solutions.
Membranes of the following types were used: CoTran 9702 (microporous polyethylene film) with 9% vinyl acetate (VA) and CoTran 9728 with 19% vinyl acetate. The solutions 3 and 4 were both applied on the surface of the two mentioned membranes while solution 5 only was applied on the surface of the CoTran 9702 membrane with 9% vinyl acetate. The membranes were placed on top of dermatomed pigskin. The inner sides of the pigskin were exposed to 12.1 ml receptor solution (0.05M phosphate pH 7.4 equilibrated to 37±1° C.).

In a further data set the test system is guinea pigs. Briefly: Delayed contact hypersensitivity, Guinea Pig Maximization Test. Format: in vivo. As to conditions: 1% intradermal induction, 25% topical induction and challenge, in sesame oil. The source says:
The delayed contact hypersensitivity test used was the Guinea Pig Maximization Test described by B. Magnusson and A. M. Kligman.
A 1% (w/w) test article concentration in sesame oil was used for the intradermal induction. A 25% (w/w) test article concentration in sesame oil was used for the topical induction and for the challenge application.

On to “N,N-dilso-propyl-3′-(2-hydroxy-5-methylphenyl)-3-phenylpropanamine [Tolterodine]”, for which the half-life result in data set [1] was “about 2 hours”. Also, the “partition coefficient (Log P)” value in data set [2] came to 1.83. For the same substance, in “solubility in water”, the solubility in water entry is on record as “about 11 mg/ml”. Besides, in data set [3], the “systemic clearance (CL)” value is recorded as “about 10 L/h”. In addition, the flux result was “about 4 μg/cm^2/h” in data set [4] (1 or 3% HPC/ethanol solution, 9% VA CoTran membrane on dermatomed pigskin); “about 11 μg/cm^2/h” in data set [4] (1 or 3% HPC/ethanol solution, 19% VA CoTran membrane on dermatomed pigskin); 9 μg/cm^2/h in data set [4] (enhancer (methyl laurate:ethanol 1:9), 9% VA CoTran membrane on dermatomed pigskin).

As to tolterodine L-tartrate, the “delayed contact hypersensitivity reaction” value with guinea pigs is recorded as “did not provoke a delayed contact hypersensitivity reaction”.
